From patent US6180625A, “Heterocyclic compounds regulating clotting” (Novo Nordisk A/S, priority 1998, dated 2001)

Target: T1, fVIIa/TF (Homo sapiens, UniProt P08709)
T1 construct: Single-chain fVII may be converted to two-chain fVIIa by factor Xa, factor XIIa, factor IXa, fVIIa or thrombin in vitro
Experiment: fX activation assay
Assay type: biochemical
Conditions: 100 pM fVIIa, 5 pM TF, 175 nM fX, 5-min incubation, S-2765 substrate, read-out: IC50 TF/FVII/FX
Description: Inhibitory Compounds are Identified in a fX Activation Assay:
The compounds are dissolved in DMSO and mixed with a solution of fVIIa in Ca^2 +-containing buffer (1+5). 30 μl of this mixture was then mixed with 45 μl TF (relipidated in PC/PS vesicles) and 25 μl of a solution containing fX, all in Ca^2 +-containing buffer. This gives final concentrations of 100 pM fVIIa, 5 pM TF, 175 nM fX and various concentrations of the compounds. After a 5-min incubation, the fVIIa/TF-catalyzed activation of fX is terminated by the addition of 50 μl buffer containing enough EDTA to give an excess over the Ca^2+ ions present. 50 μl of a 2-mM solution of S-2765 (fXa substrate) is then added and the fXa formed is allowed to hydrolyze the substrate for 10 minutes during which the absorbance at 405 nm is continuously monitored in a SPECTRAmax™ 340 plate reader. The slope of the absorption curve is compared to that of a control where DMSO alone was added to fVIIa/TF/fX.
IC50 TF/FVII/FX: The IC50 value in μM found from the FX activation assay

T1 sequence (P08709 213-466 limits assumed): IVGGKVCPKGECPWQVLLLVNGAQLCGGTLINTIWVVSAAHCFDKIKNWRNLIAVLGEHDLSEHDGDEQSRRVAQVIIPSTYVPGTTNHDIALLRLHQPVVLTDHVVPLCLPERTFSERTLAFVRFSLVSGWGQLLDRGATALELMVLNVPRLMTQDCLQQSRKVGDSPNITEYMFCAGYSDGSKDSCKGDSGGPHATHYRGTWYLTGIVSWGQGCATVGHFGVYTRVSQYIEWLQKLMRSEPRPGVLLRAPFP
T1 sequence (P08709 61-212 limits assumed): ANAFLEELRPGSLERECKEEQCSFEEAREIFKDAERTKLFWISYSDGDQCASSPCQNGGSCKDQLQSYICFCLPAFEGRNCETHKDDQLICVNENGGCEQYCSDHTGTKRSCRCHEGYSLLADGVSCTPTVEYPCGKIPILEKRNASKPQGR
T1 sequence (P13726 33-295 partner): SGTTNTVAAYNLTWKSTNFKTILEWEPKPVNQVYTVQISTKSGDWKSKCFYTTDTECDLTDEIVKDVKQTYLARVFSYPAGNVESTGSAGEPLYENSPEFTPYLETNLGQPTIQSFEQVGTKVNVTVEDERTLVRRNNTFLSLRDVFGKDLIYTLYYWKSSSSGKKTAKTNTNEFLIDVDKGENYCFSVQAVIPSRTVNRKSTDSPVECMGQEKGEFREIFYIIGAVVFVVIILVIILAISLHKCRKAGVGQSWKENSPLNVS

Molecule	IC50
Cc1ccc2nc(-c3c(F)cccc3Cl)oc(=O)c2c1 [Example 41, 2-(2-Chloro-6-fluorophenyl)-6-methyl-4H-3,1-benzoxazin-4-one]	900 nM
O=c1oc(-c2ccccc2[N+](=O)[O-])nc2cccc([N+](=O)[O-])c12 [Example 83, 5-Nitro-2-(2-nitro-phenyl)-benzo[d][1,3]oxazin-4-one]	320 nM
COc1ccc(Br)c(-c2nc3ccccc3c(=O)o2)c1 [Example 43, 2-(2-Bromo-5-methoxy-phenyl)-4H-3,1-benzoxazin-4-one]	1100 nM

Continued, values first:

IC50	Molecule
3100 nM	O=c1oc(-c2ccccc2F)nc2ccc(C(F)(F)F)cc12 [Example 95, 2-(2-Fluoro-phenyl)-6-trifluoromethyl-benzo[d][1,3]oxazin-4-one]
5600 nM	COC(=O)c1cccc2nc(-c3ccccc3F)oc(=O)c12 [Example 75, 2-(2-Fluoro-phenyl)-4-oxo-4H-benzo[d][1,3]oxazine-5-carboxylic acid methyl ester]
170 nM	O=c1oc(-c2c(F)cccc2F)nc2cccc(Cl)c12 [Example 116, 5-Chloro-2-(2,6-difluoro-phenyl)-benzo[d][1,3]oxazin-4-one]
2800 nM	O=c1oc(-c2cccnc2Cl)nc2cccc([N+](=O)[O-])c12 [Example 87, 2-(2-Chloro-pyridin-3-yl)-5-nitro-benzo[d][1,3]oxazin-4-one]
600 nM	Cc1cccc(-c2nc3ccccc3c(=O)o2)c1 [Example 13, 2-m-Tolyl-4H-3,1-benzoxazin-4-one]

Tested on: not given
Experiment: not given
Conditions: blood; cited from earlier work

Molecule	half-life
heparin	approximately 80 minutes
